Like-named read-outs stand apart in the source and are kept apart here.
Tests used:
[1] = system: human myeloid progenitors (CFU-GM); assay: Myeloid CFU assay (colony forming cell assay, bone marrow); type: cell-based; conditions: 14 days in culture
Method: (§1) Compounds were tested to evaluate the potential effects on human erythroid and myeloid progenitors using colony forming cell assays. Clonogenic progenitors of human erythroid (CFU-E, BFU-E), granulocyte-monocyte (CFU-GM) and multipotential (CFU-GEMM) lineages were assessed in a semi-solid methylcellulose-based media formulation containing rhlL-3 (10 ng/mL), rhGM-SCF (10 ng/mL), rhSCF (50 ng/mL) and Epo (3 U/mL).
(§2) Normal human bone marrow light density cells derived from normal bone marrow (NorCal Biologics, California), were stored in the gaseous phase of liquid nitrogen (−152° C.) until required for the assay. On the day of the experiment, the cells were thawed rapidly, the contents of each vial was diluted in 10 mL of Iscove's modified Dulbecco's medium containing 10% fetal bovine serum (IMDM+10% FBS) and washed by centrifugation (approximately 1200 r.p.m. for 10 minutes, room temperature). The supernatant was discarded and the cell pellets resuspended in a known volume of IMDM+10% FBS. A cell count (3% glacial acetic acid) and viability assessment (trypan blue exclusion test) was performed for the bone marrow sample.
(§3) On the day of the experiment, the compounds were dissolved in DMSO to a stock concentration of 10 mM. Serial dilutions were prepared from the stock concentration to achieve concentrations of 2 and 0.4 mM. When added to the methylcellulose-based media at 1:1000 (v/v), the final test concentrations of 10, 2 and 0.4 μM were achieved. Additionally, 5-FU was evaluated at 1.0, 0.1 and 0.01 μg/mL.
(§4) Clonogenic progenitors of the human erythroid (CFU-E and BFU-E) and myeloid (CFU-GM) lineages were set up in the methylcellulose-based media formulations described above. All compounds were added to the medium to give the final desired concentrations (10, 2 and 0.4 μM). 5-Fluorouracil (Sigma Aldrich) was used as a positive control for progenitor proliferation (inhibition of colony growth) and was introduced to the human bone marrow cultures at 1.0, 0.1, and 0.01 μg/mL. Solvent control cultures (containing no compound but 0.1% DMSO) as well as standard controls (containing no compound and no DMSO) were also initiated.
(§5) Human myeloid and erythroid progenitor assays were initiated at 2.0×10^4 cells per culture. Following 14 days in culture, myeloid and erythroid colonies were assessed microscopically and scored by trained personnel. The colonies were divided into the following categories based on size and morphology: CFU-E, BFU-E, CFU-GM and CFU-GEMM.
(§6) The mean±one standard deviation of three replicate cultures was calculated for progenitors of each category (CFU-E, BFU-E, etc.). Two-tailed t-tests were performed to assess if there was a difference in the number of colonies generated between solvent control and treated cultures. Due to the potential subjectivity of colony enumeration, a p value of less than 0.01 is deemed significant. To calculate the concentration of 50% inhibition of colony growth (IC50) for each compound, a dose response curve was generated plotting the log of the compound concentration versus the percentage of control colony growth using XLfit software (IDBS). The concentration of 50% inhibition of colony growth (IC50) was calculated based on the sigmoid curve fit using Dose-Response, One-Site Model formula: y=A+[(B−A)/(1+((C/x)^D))], where A=the initial value (baseline response), B=maximum response, C=center (drug concentration that provokes a response halfway between A and B) and D=slope of the curve at midpoint. Further, plots and additional dose response curves were generated using GraphPad Prism 7.0.
(§7) Erythroid (CFU-E and BFU-E), myeloid (CFU-GM) and multi-potential (CFU-GEMM) colony enumeration was performed by trained personnel. The distribution of colony types as well as general colony and cellular morphology was analyzed. For statistical analysis colony numbers in compound treated cultures were compared to the solvent control cultures. […]

[2] = system: human erythroid progenitors (CFU-E, BFU-E); assay: Erythroid CFU assay (colony forming cell assay, bone marrow); type: cell-based; conditions: 14 days in culture
Method: as §1, §2, §3, §4, §5, §6, §7

[3] = Brain and plasma exposure following IV and PO administration to mice; type: in vivo; conditions: mice; for half-life / clearance: mouse, plasma; for clearance: read-out: IV PK Cl (converted); for Projected free brain @ 10 mpk / Brain Cmax @ 10 mpk: 10 mg/kg PO
Method: Compounds were dosed in mice at either 10 mg/kg or 30 mg/kg PO, and were dosed at 1 mg/kg IV. Three animals for collection at each time point for plasma via bleeding at 0.25, 0.5, 1, 4, 12 and 24 h. Terminal bleeding for plasma and sampling for brain at 0.25, 0.5, 1, 4, 12 and 24 h (also three animals per brain exposure time point group). Total of six time points for plasma and six time points for brain.
Plasma: The animal was restrained manually at the designated time points, approximately 150 μL blood/time point was collected into K2EDTA tube via retro orbital puncture or cardiac puncture under anesthesia with Isoflurane. The blood sample was centrifuged (2000 g, 4° C., 5 min) to generate plasma within 30 min after bleeding.
Brain: At the designated time points, a mid-line incision was made in the animals scalp and the skin was retracted. Using small bone cutters and rongeurs, removed the skull overlying the brain. Removed the brain using a spatula and rinse with cold saline. Placed the brain in screw-top tubes, and then stored the tubes under −70° C. until analysis.

HDAC2 [4] = target: T1, HDAC2 (Homo sapiens (Human), UniProt Q92769); assay: HDAC2 enzymatic inhibition assay in SY5Y cell lysate (HDAC-Glo 2); type: cell-based; conditions: SH-SY5Y cells, five hours incubation
T1 sequence (Q92769 whole entry): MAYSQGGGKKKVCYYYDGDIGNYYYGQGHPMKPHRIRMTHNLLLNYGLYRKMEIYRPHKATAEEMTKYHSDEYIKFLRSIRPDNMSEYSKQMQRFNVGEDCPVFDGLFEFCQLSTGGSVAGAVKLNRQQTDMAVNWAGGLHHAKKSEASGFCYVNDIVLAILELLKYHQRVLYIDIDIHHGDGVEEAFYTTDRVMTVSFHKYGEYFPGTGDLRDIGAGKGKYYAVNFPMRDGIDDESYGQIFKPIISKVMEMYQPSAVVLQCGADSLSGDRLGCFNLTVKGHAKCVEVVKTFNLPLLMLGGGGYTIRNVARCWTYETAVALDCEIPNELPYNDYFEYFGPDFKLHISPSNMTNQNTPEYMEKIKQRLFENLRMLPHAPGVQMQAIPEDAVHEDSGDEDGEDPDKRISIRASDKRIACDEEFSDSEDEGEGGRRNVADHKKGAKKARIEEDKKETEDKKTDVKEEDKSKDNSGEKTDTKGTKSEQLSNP
Method: SH-SY5Y cells (Sigma) were cultured in Eagle's Modified Essential Medium supplemented with 10% fetal bovine serum and pen/strep. Twenty-four hours prior to compound dosing 20 uL of cells were plated in white 384 well plates at a density of 1,500 cells/well. Compounds were serially diluted in neat DMSO and then diluted 1:100 v/v into media without FBS and mixed. Media was removed from the plated cells and the diluted compounds in serum free media (1% v/v final DMSO) were added and incubated at 37.0 for five hours. Ten uL of HDAC-Glo 2 reagent with 0.1% Triton X-100 was then added, the plate was mixed and allowed to develop at room temperature for 100 minutes. Plates were then read with a Spectramax LMax luminometer employing a 0.4 s integration time. Dose response curves were constructed with normalized data where CI-994 at 100 uM was defined as 100% inhibition and DMSO alone as 0% inhibition.

HDAC1 = HDAC1 (Homo sapiens (Human), UniProt Q13547); assay: HDAC1 enzymatic assay (Caliper LabChip, peptide deacetylation); type: biochemical; conditions: 17 hours, 25° C.
HDAC1, sequence (Q13547 whole entry): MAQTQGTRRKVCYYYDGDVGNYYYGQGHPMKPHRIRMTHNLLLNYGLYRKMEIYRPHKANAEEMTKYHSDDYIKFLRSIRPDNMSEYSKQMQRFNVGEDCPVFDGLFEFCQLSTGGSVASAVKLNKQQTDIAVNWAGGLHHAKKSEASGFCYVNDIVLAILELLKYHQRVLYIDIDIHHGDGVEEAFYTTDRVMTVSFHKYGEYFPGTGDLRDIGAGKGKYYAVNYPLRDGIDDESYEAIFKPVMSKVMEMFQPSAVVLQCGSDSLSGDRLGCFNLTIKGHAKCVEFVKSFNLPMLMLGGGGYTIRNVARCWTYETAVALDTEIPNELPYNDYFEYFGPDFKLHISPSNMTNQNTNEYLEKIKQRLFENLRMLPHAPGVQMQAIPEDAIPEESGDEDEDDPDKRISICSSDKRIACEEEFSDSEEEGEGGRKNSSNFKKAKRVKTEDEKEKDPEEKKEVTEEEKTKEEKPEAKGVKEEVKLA
Method: (§8) The following describes an assay protocol for measuring the deacetylation of a peptide substrate by the enzymes HDAC2 or HDAC1. Enzyme, substrate, and cofactors are combined in a well of a microtiter plate and incubated for […] at 25° C. At the end of the incubation, the reaction is quenched by the addition of an SDS-containing buffer. Substrate and product are separated and quantified electrophoretically using the microfluidic-based LabChip 3000 Drug Discovery System from Caliper Life Sciences. The peptide substrate used in this assay is FAM-TSRHK(AC)KL-CONH2 (FAM is carboxyfluorescein). Peptide should be >98% purity by Capillary Electrophoresis. • 1. To a well of a 384-well plate, add 5 μL of 2× enzyme buffer. Using Labcyte Echo 550, add 100 nl compound. Enzyme and compound may be pre-incubated at this time if desired. • 2. Add 5 μL of 2× substrate buffer. • 3. Incubate plate at 25° C. for 17 hours. • 4. Terminate reaction by adding 40 μL of 1.55× stop buffer. • 5. Create job on a Caliper LabChip® 3000 Drug Discovery System. • 6. Load the plate and start electrophoresis using blue laser (480 nm) for excitation and green CCD (520 nm) for detection (CCD2). Reaction time=17 hours; Reaction temperature=25° C.
1% DMSO (from compound) 1 μM FAM-TSRHK(AC)KL-CONH2 5 nM HDAC Enzyme (specific activity may vary from lot-to-lot, and enzyme concentration may need to be adjusted to yield˜10-20% conversion of substrate to product).
Substrate and product peptides present in each sample are separated electrophoretically using the LabChip 3000 capillary electrophoresis instrument. As substrate and product peptides are separated, two peaks of fluorescence are observed. Change in the relative fluorescence intensity of the substrate and product peaks is the parameter measured, reflecting enzyme activity. Capillary electrophoregramms (RDA acquisition files) are analyzed using HTS Well Analyzer software (Caliper Life Sciences). The […] in each sample is determined as the product to sum ratio (PSR): P/(S+P), where P is the peak height of the product peptide and S is the peak height of the substrate peptide. For each compound, enzyme activity is measured at various concentrations (12 concentrations of compound spaced by 3× dilution intervals). Negative control samples (0%-inhibition in the absence of inhibitor) and positive control samples (100%-inhibition, in the presence of 20 mM EDTA) are assembled in replicates of four and are used to calculate %-inhibition values for each compound at each concentration. Percent inhibition (Pinh) is determined using following equation: Pinh=(PSR0%−PSRinh)/(PSR0%−PSR100%)*100, where PSRinh is the product sum ratio in the presence of inhibitor, PSR0% is the average product sum ration in the absence of inhibitor and PSR100% is the average product sum ratio in 100%-inhibition control samples.
The IC50 values of inhibitors are determined by fitting the inhibition curves (Pinh versus inhibitor concentration) by 4 parameter sigmoidal dose-response model using XLfit 4 software (IBDS).
In the table, “A” indicates a […] of between 0.1 μM and 0.5 μM and “B” a Kd value of greater than 0.5 μM and less than or equal to 5.0 μM.

HDAC2 [5] = target: T1, HDAC2; assay: HDAC2 enzymatic assay (Caliper LabChip, peptide deacetylation); type: biochemical; conditions: 17 hours, 25° C.
Method: as §8, with “Load the plate and start electrophoresis using blue laser (480 nm) for excitation and green CCD (520 nm) for detection (CCD2). Reaction time=17 hours; Reaction temperature=25° C.” left out
Substrate and product peptides present in each sample are separated electrophoretically using the LabChip 3000 capillary electrophoresis instrument. As substrate and product peptides are separated, two peaks of fluorescence are observed. Change in the relative fluorescence intensity of the substrate and product peaks is the parameter measured, reflecting enzyme activity. Capillary electrophoregramms (RDA acquisition files) are analyzed using HTS Well Analyzer software (Caliper Life Sciences). The […] in each sample is determined as the product to sum ratio (PSR): P/(S+P), where P is the peak height of the product peptide and S is the peak height of the substrate peptide. For each compound, enzyme activity is measured at various concentrations (12 concentrations of compound spaced by 3× dilution intervals). […]
The IC50 values of inhibitors are determined by fitting the inhibition curves (Pinh versus inhibitor concentration) by 4 parameter sigmoidal dose-response model using XLfit 4 software (IBDS). […]

[6] = iv, 1 mg/kg, 1 mg/kg IV, read-out: IV PK T1/2 (converted)
[7] = po, 10 mg/kg, PO, read-out: PO T1/2 (converted)

Row | SMILES | Myeloid % control @ 10 uM dose [1] [%] | Erythroid % control @ 10 uM dose [2] [%] | half-life [3, 6] [h] | half-life [3, 7] [h] | clearance ([3]; 1 mg/kg IV) [mL/min/kg] | IC50 (HDAC2 [4]) [nM] | further results
1 | Nc1ccc(-c2ccc(F)cc2)nc1NC(=O)N1Cc2cncnc2C1 [Comparator 1, reference compound] | 83.9 | 47.1 |  |  |  |  | Projected free brain @ 10 mpk (uM) (*scaled for comparison) ([3]; dosed 30 mg/kg PO, scaled to 10 mg/kg PO): 0.111* uM; Brain Cmax @ 10 mpk ng/g (*scaled for comparison) ([3]; dosed 30 mg/kg PO, scaled to 10 mg/kg PO, brain): 158* ng/g
2 | Cn1cc2c(n1)CN(C(=O)Nc1nc(-c3ccc(F)cc3)ccc1N)C2 [Comparator 2, reference compound] | 30.4 | 15.7 |  |  |  |  | 
3 | Cc1cc2c(cn1)CN(C(=O)Nc1nc(-c3ccc(F)cc3)ccc1N)C2 [Comparator 3, reference compound] | 66.1 | 25.7 |  |  |  |  | 
4 | COCc1cc2c(cn1)CN(C(=O)Nc1nc(-c3ccc(F)cc3)ccc1N)C2 [Comparator 5, reference compound] | 58.9 | 22.9 |  |  |  |  | 
5 | Nc1ccc(-c2cccs2)nc1NC(=O)N1Cc2cncnc2C1 [Comparator 6] |  |  | 0.152 | 0.557 | 139 |  | 
6 | Cc1ncc(-c2ccc(N)c(NC(=O)N3Cc4cn(C)nc4C3)n2)s1 [Compound 4] | 96 | 53 | 1.86 | 2.12 | 8.93 | 100 to 1000 | Projected free brain @ 10 mpk [3]: 0.479 µM; Brain Cmax @ 10 mpk ([3]; brain): 324 ng/g
7 | Nc1ccc(-c2ccc(F)cc2F)nc1NC(=O)N1Cc2cn(C3COC3)nc2C1 [Compound 6] |  |  |  |  |  | 100 to 1000 | IC50 (HDAC1): 500 to 5000 nM; IC50 (HDAC2 [5]): 500 to 5000 nM

Further lines, with some results ahead:

Row | Myeloid % control @ 10 uM dose [1] [%] | Erythroid % control @ 10 uM dose [2] [%] | half-life [3, 6] [h] | half-life [3, 7] [h] | clearance ([3]; 1 mg/kg IV) [mL/min/kg] | IC50 (HDAC2 [4]) [nM] | SMILES | further results
8 |  |  | 3.06 | 2.95 | 28.5 | 100 to 1000 | Cc1nc2c(n1C)CN(C(=O)Nc1nc(-c3ccc(F)cc3)ccc1N)C2 [Compound 7] | Projected free brain @ 10 mpk [3]: 0.050 µM; Brain Cmax @ 10 mpk ([3]; brain): 102 ng/g
9 | 103 | 94 | 7.53 | 2.9 | 17.8 | 100 to 1000 | Cn1cc2c(n1)CN(C(=O)Nc1nc(-c3cccnc3)ccc1N)C2 [Compound 11] | Projected free brain @ 10 mpk [3]: 0.664 µM; Brain Cmax @ 10 mpk ([3]; brain): 369 ng/g
10 |  |  |  |  |  | 100 to 1000 | Nc1ccc(-c2cccnc2)nc1NC(=O)N1Cc2cnc(CC(F)F)cc2C1 [Compound 15] | 
11 |  |  |  |  |  | > 1500 | Nc1ccc(-c2cccnc2)nc1NC(=O)N1Cc2cnc(C(F)F)cc2C1 [Compound 16] | 

From US10793567B2, “Bicyclic inhibitors of histone deacetylase” (Rodin Therapeutics, Inc., priority 2017, dated 2020)
